Patent US4795743A, “2'-deamino-2'-hydroxyistamycin Bo derivatives of low toxicity” (Zaidan Hojin Biseibutsu Kagaku Kenkyu Kai, priority 1986, dated 1989)
Values after ≈ are worked out from the molar mass of the structure shown. Read-outs that look alike come from different tables or passages of the source.

Assays:
Shigella sonnei = test: Antibacterial spectrum, standard serial dilution method; type: cell-based; conditions: Muller-Hinton medium, 37° C., 18 hours, read-out: Minimum Growth Inhibitory Concentration
Serratia sp. 4 = test: as above; type: cell-based; conditions: Muller-Hinton medium, 37° C., 18 hours, read-out: Minimum Growth Inhibitory Concentration
[1] = test system: Escherichia coli JR66/W677; test: as above; type: cell-based; conditions: read-out: Minimum Growth Inhibitory Concentration
[2] = test system: Pseudomonas aeruguinosa H9; test: as above; type: cell-based, Pseudomonas aeruginosa; conditions: read-out: Minimum Growth Inhibitory Concentration
Escherichia coli W677 = test: as above; type: cell-based; conditions: read-out: Minimum Growth Inhibitory Concentration
[3] = test system: Escherichia coli K-12 ML1410; test: as above; type: cell-based; conditions: read-out: Minimum Growth Inhibitory Concentration
[4] = test system: Pseudomonas aeruguinosa ROS 134/PU21; test: as above; type: cell-based, Pseudomonas aeruginosa; conditions: ROS134/PU21, 18 h, read-out: Minimum Growth Inhibitory Concentration
[5] = test system: Shigella dysernteriae JS11910; test: as above; type: cell-based; conditions: Muller-Hinton medium, 37° C., 18 hours, read-out: Minimum Growth Inhibitory Concentration
mice = test: Acute toxicity by intravenous injection in mice; conditions: mice, intravenous injection, 200 mg/kg
[6] = test system: Mycobacterium smegmatis ATCC 607; test: Antibacterial spectrum, standard serial dilution method; type: cell-based; conditions: Mycolicibacterium smegmatis, read-out: Minimum Growth Inhibitory Concentration
[7] = test system: Salmonella enteritidis 1891; test: as above; type: cell-based; conditions: Salmonella enterica, Muller-Hinton medium, 37° C., 18 hours, read-out: Minimum Growth Inhibitory Concentration
[8] = test system: Pseudomonas aeruguinosa No.12; test: as above; type: cell-based, Pseudomonas aeruginosa; conditions: Muller-Hinton medium, 37° C., 18 hours, read-out: Minimum Growth Inhibitory Concentration
[9] = test system: Pseudomonas aeruguinosa GN315; test: as above; type: cell-based, Pseudomonas aeruginosa; conditions: read-out: Minimum Growth Inhibitory Concentration
[10] = test system: Pseudomonas aeruguinosa B-13; test: as above; type: cell-based, Pseudomonas aeruginosa; conditions: B13, Muller-Hinton medium, 37° C., 18 hours, read-out: Minimum Growth Inhibitory Concentration
Proteus rettgeri GN311 = test: as above; type: cell-based; conditions: Providencia rettgeri, read-out: Minimum Growth Inhibitory Concentration
Proteus rettgeri GN466 = test: as above; type: cell-based; conditions: Providencia rettgeri, read-out: Minimum Growth Inhibitory Concentration
[11] = test system: Corynebacterium bovis 1810; test: as above; type: cell-based; conditions: Corynebacterium bovis 1810; Muller-Hinton medium, 37° C., 18 hours; read-out: Minimum Growth Inhibitory Concentration
[12] = test system: Staphylococcus epidermidis 109; test: as above; type: cell-based; conditions: read-out: Minimum Growth Inhibitory Concentration
[13] = test system: Pseudomonas aeruguinosa A3; test: as above; type: cell-based, Pseudomonas aeruginosa; conditions: read-out: Minimum Growth Inhibitory Concentration
Escherichia coli NIHJ = test: as above; type: cell-based; conditions: read-out: Minimum Growth Inhibitory Concentration
[14] = test system: Pseudomonas aeruguinosa PST1; test: as above; type: cell-based, Pseudomonas aeruginosa; conditions: Muller-Hinton medium, 37° C., 18 hours, read-out: Minimum Growth Inhibitory Concentration
[15] = test system: Escherichia coli K-12 LA290 R56; test: as above; type: cell-based; conditions: K12LA290R56, 18 h, read-out: Minimum Growth Inhibitory Concentration
[16] = test system: Escherichia coli K-12 R388; test: as above; type: cell-based; conditions: K12R388, 18 h, read-out: Minimum Growth Inhibitory Concentration
[17] = test system: Bacillus subtilis PCI 219; test: as above; type: cell-based; conditions: read-out: Minimum Growth Inhibitory Concentration
[18] = test system: Escherichia coli K-12 ML1629; test: as above; type: cell-based; conditions: K12ML1629, E. coli K-12 ML1629, Muller-Hinton medium, 37° C., 18 hours, read-out: Minimum Growth Inhibitory Concentration
[19] = test system: Klebsiella pneumoniae 22 = 3038; test: as above; type: cell-based; conditions: read-out: Minimum Growth Inhibitory Concentration
[20] = test system: Escherichia coli K-12 ML1630; test: as above; type: cell-based; conditions: K12ML1630, E. coli K-12 ML1630, Muller-Hinton medium, 37° C., 18 hours, read-out: Minimum Growth Inhibitory Concentration
[21] = test system: Pseudomonas aeruguinosa 99; test: as above; type: cell-based, Pseudomonas aeruginosa; conditions: Muller-Hinton medium, 37° C., 18 hours, read-out: Minimum Growth Inhibitory Concentration
[22] = test system: Pseudomonas aeruguinosa 21-75; test: as above; type: cell-based, Pseudomonas aeruginosa; conditions: 2175, Muller-Hinton medium, 37° C., 18 hours, read-out: Minimum Growth Inhibitory Concentration
[23] = test system: Staphylococcus aureus 209P; test: Antibacterial spectrum, standard serial dilution method of Japan Society of Chemotherapy; type: cell-based; conditions: read-out: Minimum Growth Inhibitory Concentration
Serratia marcescens = test: Antibacterial spectrum, standard serial dilution method; type: cell-based; conditions: read-out: Minimum Growth Inhibitory Concentration
Escherichia coli K-12 = test: as above; type: cell-based; conditions: read-out: Minimum Growth Inhibitory Concentration
[24] = test system: Escherichia coli K-12 LA290 R55; test: as above; type: cell-based; conditions: K12LA290R55, 18 h, read-out: Minimum Growth Inhibitory Concentration
[25] = E. coli W677, Muller-Hinton medium, 37° C., 18 hours
[26] = Staphylococcus epidermidis, 109, 18 h
[27] = Pseudomonas aeruguinosa A3, Muller-Hinton medium, 37° C., 18 hours
[28] = PCI219, Bacillus subtilis PCI 219, Muller-Hinton medium, 37° C., 18 hours
[29] = S. aureus 209P, Muller-Hinton medium, 37° C., 18 hours
[30] = Pseudomonas aeruguinosa H9, Muller-Hinton medium, 37° C., 18 hours
[31] = ATCC607, Mycobacterium smegmatis ATCC 607, Muller-Hinton medium, 37° C., 18 hours
[32] = Pseudomonas aeruguinosa GN315, Muller-Hinton medium, 37° C., 18 hours
[33] = Proteus rettgeri GN466, Muller-Hinton medium, 37° C., 18 hours

| Structure (SMILES) | MIC (Shigella sonnei) [µg/mL] | MIC (Serratia sp. 4) [µg/mL] | MIC ([1]; JR66/W677, 18 h) [µg/mL] | MIC (Escherichia coli W677; [25]) [µg/mL] | MIC ([3]; K12ML1410, 18 h) [µg/mL] | MIC [4] [µg/mL] | MIC [5] [µg/mL] | acute toxicity (survival, symptoms) (mice) | MIC [7] [µg/mL] | MIC [8] [µg/mL] | MIC [10] [µg/mL] | MIC [11] [µg/mL] | MIC [14] [µg/mL] | MIC [15] [µg/mL] | MIC [16] [µg/mL] | MIC [18] [µg/mL] | MIC [20] [µg/mL] | MIC [21] [µg/mL] | MIC [22] [µg/mL] | MIC [24] [µg/mL] | further results |
| --- | --- | --- | --- | --- | --- | --- | --- | --- | --- | --- | --- | --- | --- | --- | --- | --- | --- | --- | --- | --- | --- |
| CNCC1CCC(O)C(OC2C(N)CC(O)C(N(C)C(=O)CN)C2O)O1 (centres unmarked) [Compound No. 2, 2'-Deamino-2'-hydroxy-3-O-demethylistamycin B] | 6.25 (≈ 16.6 µM) | 25 (≈ 66.4 µM) | 6.25 (≈ 16.6 µM) | 3.13 (≈ 8.31 µM) | 6.25 (≈ 16.6 µM) | 50 (≈ 133 µM) | 12.5 (≈ 33.2 µM) | survived without showing any sympton of toxicity | 12.5 (≈ 33.2 µM) | 25 (≈ 66.4 µM) | 25 (≈ 66.4 µM) | 3.13 (≈ 8.31 µM) | 25 (≈ 66.4 µM) | 3.13 (≈ 8.31 µM) | 3.13 (≈ 8.31 µM) | 6.25 (≈ 16.6 µM) | 6.25 (≈ 16.6 µM) | 50 (≈ 133 µM) | 25 (≈ 66.4 µM) | 6.25 (≈ 16.6 µM) | MIC ([2]; Pseudomonas, H9, 18 h): 12.5 µg/mL (≈ 33.2 µM); MIC ([6]; ATCC607, 18 h): 6.25 µg/mL (≈ 16.6 µM); MIC ([9]; Pseudomonas, GN315, 18 h): 12.5 µg/mL (≈ 33.2 µM); MIC (Proteus rettgeri GN311; GN311, 18 h): 1.56 µg/mL (≈ 4.14 µM); MIC (Proteus rettgeri GN466; GN466, 18 h): 1.56 µg/mL (≈ 4.14 µM); MIC [12, 26]: 1.56 µg/mL (≈ 4.14 µM); MIC [13, 27]: 0.39 µg/mL (≈ 1.04 µM); MIC (Escherichia coli NIHJ; 18 h): 1.56 µg/mL (≈ 4.14 µM); MIC [17, 28]: 3.13 µg/mL (≈ 8.31 µM); MIC ([19]; Klebsiella pneumoniae, 18 h): 6.25 µg/mL (≈ 16.6 µM); MIC [23, 29]: 3.13 µg/mL (≈ 8.31 µM); MIC (Serratia marcescens; 18 h): 12.5 µg/mL (≈ 33.2 µM); MIC (Escherichia coli K-12; K12, 18 h): 1.56 µg/mL (≈ 4.14 µM) |
| CNCC1CCC(O)C(OC2C(N)CC(OC)C(N(C)C(=O)CCN)C2O)O1 (stereo not drawn) [Compound No. 3, 4-N-(β-Alanyl)-2'-deamino-2'-hydroxyistamycin Bo] | 6.25 (≈ 15.5 µM) | 100 (≈ 247 µM) | 6.25 (≈ 15.5 µM) |  |  | > 100 | 3.13 (≈ 7.74 µM) | survived without showing any sympton of toxicity | 6.25 (≈ 15.5 µM) | 100 (≈ 247 µM) | 100 (≈ 247 µM) | 12.5 (≈ 30.9 µM) | 100 (≈ 247 µM) | 3.13 (≈ 7.74 µM) | 3.13 (≈ 7.74 µM) | 6.25 (≈ 15.5 µM) | 12.5 (≈ 30.9 µM) | > 100 | 100 (≈ 247 µM) | 12.5 (≈ 30.9 µM) | MIC [2, 30]: 50 µg/mL (≈ 124 µM); MIC (Escherichia coli W677; W677, 18 h): 3.13 µg/mL (≈ 7.74 µM); MIC ([3]; K12ML1410, E. coli K-12 ML1410, Muller-Hinton medium, 37° C., 18 hours): 12.5 µg/mL (≈ 30.9 µM); MIC [6, 31]: 25 µg/mL (≈ 61.8 µM); MIC [9, 32]: 50 µg/mL (≈ 124 µM); MIC (Proteus rettgeri GN311; GN311, 18 h): 3.13 µg/mL (≈ 7.74 µM); MIC (Proteus rettgeri GN466; [33]): 0.78 µg/mL (≈ 1.93 µM); MIC [12, 26]: 3.13 µg/mL (≈ 7.74 µM); MIC ([13]; Pseudomonas, A3, 18 h): 3.13 µg/mL (≈ 7.74 µM); MIC (Escherichia coli NIHJ; 18 h): 1.56 µg/mL (≈ 3.86 µM); MIC ([17]; Bacillus subtilis, PCI219, 18 h): 6.25 µg/mL (≈ 15.5 µM); MIC ([19]; Klebsiella pneumoniae 22 = 3038, Muller-Hinton medium, 37° C., 18 hours): 12.5 µg/mL (≈ 30.9 µM); MIC ([23]; 209P, 18 h): 6.25 µg/mL (≈ 15.5 µM); MIC (Serratia marcescens; 18 h): 6.25 µg/mL (≈ 15.5 µM); MIC (Escherichia coli K-12; K12, 18 h): 3.13 µg/mL (≈ 7.74 µM) |
| CNCC1CCC(N)C(OC2C(N)CC(OC)C(N(C)C(=O)CN)C2O)O1 (centres unmarked) [Istamycin B, istamycin B] | 3.13 (≈ 8.04 µM) | 50 (≈ 128 µM) |  | 0.78 (≈ 2 µM) | 3.13 (≈ 8.04 µM) | > 100 | 3.13 (≈ 8.04 µM) |  | 3.13 (≈ 8.04 µM) | 25 (≈ 64.2 µM) | > 100 | 0.78 (≈ 2 µM) | 50 (≈ 128 µM) | 0.78 (≈ 2 µM) | 1.56 (≈ 4.01 µM) | 1.56 (≈ 4.01 µM) | 6.25 (≈ 16 µM) | > 100 | 50 (≈ 128 µM) | 3.13 (≈ 8.04 µM) | MIC ([1]; E. coli JR66/W677, Muller-Hinton medium, 37° C., 18 hours): 1.56 µg/mL (≈ 4.01 µM); MIC [2, 30]: 12.5 µg/mL (≈ 32.1 µM); MIC [6, 31]: 0.78 µg/mL (≈ 2 µM); MIC [9, 32]: 25 µg/mL (≈ 64.2 µM); MIC (Proteus rettgeri GN311; Proteus rettgeri GN311, Muller-Hinton medium, 37° C., 18 hours): 1.56 µg/mL (≈ 4.01 µM); MIC (Proteus rettgeri GN466; [33]): 0.78 µg/mL (≈ 2 µM); MIC ([12]; Staphylococcus epidermidis, S. epidermidis 109, Muller-Hinton medium, 37° C., 18 hours): 0.78 µg/mL (≈ 2 µM); MIC [13, 27]: 0.39 µg/mL (≈ 1 µM); MIC (Escherichia coli NIHJ; E. coli NIHJ, Muller-Hinton medium, 37° C., 18 hours): 0.78 µg/mL (≈ 2 µM); MIC [17, 28]: 0.78 µg/mL (≈ 2 µM); MIC ([19]; Klebsiella pneumoniae, 18 h): 3.13 µg/mL (≈ 8.04 µM); MIC [23, 29]: 0.78 µg/mL (≈ 2 µM); MIC (Serratia marcescens; Muller-Hinton medium, 37° C., 18 hours): 6.25 µg/mL (≈ 16 µM); MIC (Escherichia coli K-12; K12, E. coli K-12, Muller-Hinton medium, 37° C., 18 hours): 0.78 µg/mL (≈ 2 µM) |
